# Measured values: patent publication US9334235B2, “Plasmalogen compounds, pharmaceutical compositions containing the same and methods for treating diseases of the aging” (Phenomenome Discoveries Inc., priority 2008, dated 2016)
# Key:
# [1] = system: HEK293 cells; assay: Cholesterol assay (free/esterified cholesterol) in HEK293 cells; format: cell-based, human; details: for membrane cholesterol (membrane free cholesterol levels): 20 μM
# Protocol: (§1) Chinese hamster ovary (CHO), N-Rel^30 (a mutant CHO cell line deficient in the peroxisomal enzyme dihydroxyacetonephosphate acyltransferase), and human embryonic kidney (HEK293) cells were grown in 10 cm^2 dishes in DMEM/Ham's F12 (1:1) containing 10% FBS. Cells were incubated with plasmalogen precursors dissolved in ethanol (final ethanol concentration of 0.1%) and harvested for plasmalogen analysis by LC-MS-MS^31, and cholesterol and cholesterol ester analyses utilizing a commercial colorimetric kit (BioVision #K613).
# (§2) HEK 293 cells, cultured in DMEM, 10% FBS at 37° C., 5% CO2, were seeded the day before the treatment. The following day, cells membranes were loaded with exogenous cholesterol at a concentration of 10 μg/ml media using methyl-β-cyclodextrin as the carrier to deliver cholesterol as described (Rong et al., 2003).
# Cells were treated with the plasmalogen precursor PPI-1005 or with ethanol as the control. Cells were harvested after 48 hours using Versene: TryPLe express cocktail, washed with PBS. Lipids were extracted with chloroform containing 1% Triton X-100. The organic fraction was recovered and dried under a stream of nitrogen. The dried lipids were resuspended in cholesterol reaction buffer (Biovision, Mountain View, Calif.), and the total, free and esterified fractions of cholesterol were quantified using the cholesterol quantification kit (Biovision, Mountain View, Calif.) as per the manufacturer's recommendations. Cholesterol was initially calculated as μg/million cells, and reported as a percentage of control conditions for each experiment.
# [2] = system: N-Rel cells; assay: Membrane cholesterol and cholesterol ester analysis (colorimetric kit) in N-Rel cells; format: cell-based, Chinese hamster; details: for membrane free cholesterol / membrane cholesterol esters (esterified cholesterol): 20 μM, 48 hr incubation; for membrane cholesterol levels: N-Rel cells
# Protocol: as §1
# [3] = Oral dosing of rabbits: plasma plasmalogens, phosphatidylethanolamines and DHA by LC-MS/MS; format: in vivo, New Zealand rabbits
# Protocol: (§3) Male New Zealand rabbits (1.8-2.5 kg) were orally dosed with PPI-1011, neat in hard gelatin capsules (size 3). For time course studies, rabbits were dosed with 200 mg/kg of PPI-1011 and animals sacrificed via euthenol overdose at 1, 3, 6, 12, 18, 24 and 48 hr. Blood was collected by cardiac puncture and plasma frozen at −70° C. for later analysis. Kidney and liver also were harvested and stored at −70° C. for later analysis. These studies were conducted as 2 experiments with overlapping groups at 12 hrs (Exp. 1: 1, 3, 6, and 12 hrs; Exp. 2: 12, 18, 24 and 48 hrs). Controls were harvested at each timepoint. Plasmalogens and lipids were extracted and analyzed by LC-MS/MS as previously reported (Goodenowe et al., 2007).
# [4] = Oral dosing of rabbits: kidney plasmalogens and DHA; format: in vivo, New Zealand rabbits; details: 200 mg/kg orally; 1, 3, 6 and 12 hours
# Protocol: as §3
# [5] = Oral dosing of rabbits: liver plasmalogens and DHA; format: in vivo, New Zealand rabbits; details: 200 mg/kg orally; 12, 18, 24 and 48 hours
# Protocol: as §3
# [6] = system: N-Rel cells; assay: Plasmalogen analysis by LC-MS/MS in N-Rel cells incubated with plasmalogen precursors; format: cell-based, Chinese hamster; details: for conversion to PlsEtn species: cells with impaired plasmalogen biosynthesis capacity (N-Rel)
# Protocol: as §1
# [7] = system: CHO cells; assay: Plasmalogen analysis by LC-MS/MS in CHO cells incubated with plasmalogen precursors; format: cell-based, Chinese hamster; details: for DHA plasmalogens in CHO cells: 72 hr, relative to CHO controls; for conversion to PlsEtn species: cells with unimpaired plasmalogen biosynthesis capacity (CHO)
# Protocol: as §1
# [8] = system: HEK293 cells; assay: Amyloid assay: Aβ secreted into conditioned medium of HEK293 cells (ELISA); format: cell-based, human; details: for levels of AB-40 / levels of AB-42: normal cells and cholesterol loaded cells
# Protocol: as §2
# HEK293 cells were loaded with exogenous cholesterol as described, and treated with a PPI 1005 or with ethanol as a control. Conditioned media from the treated cells was collected at the end of a 48 hour incubation period. For assaying Aβ1-42 content, the conditioned media was enriched using Amicon ultracentrifugal filter devices (Millipore, Billerica, Mass.) prior to loading into the microplate. ELISA was carried out as per the manufacturer's recommendations (Covance Labs, Princeton, N.J.). The reactions were quenched 25 minutes after addition of the substrate, and the absorbance was read at 495 nm. The experiment was carried out in triplicate. Values were calculated as pg/ml of conditioned media, and were normalized to the amount of Aβ detected in the conditioned media from untreated, cholesterol loaded control HEK293 cells.
# [9] = system: APP; assay: Immunoblotting of APP in HEK293 cells; format: cell-based, human; details: wild-type HEK293 cells, not loaded with cholesterol
# Protocol: (§4) HEK293 cells were treated as described in the amyloid assay. The cell pellet was washed in PBS and lysed in a RIPA buffer containing a protease inhibitor cocktail (Sigma, St. Louis, […].). Protein in the cell lysate was quantified using the Bio-Rad Protein Assay (Bio-Rad, Hercules, Calif.). The following antibodies were used for western analyses: APP (Calbiochem, Darmstadt, Germany), BACE1 and ADAM10 (Millipore, Temecula, Calif.), sAPPα (IBL, Gunma, Japan), SOAT1 (Santa Cruz Biotechnology Inc., CA), and β-actin (Sigma, St. Louis, […].). Immunoprecipitation was carried out to estimate sAPPα in the conditioned medium. Briefly, antibody to sAPPα was added to conditioned media and incubated for 16 hours at 4° C. IP was carried out by incubating with protein A/G agarose beads for 6 hours at 4° C. Beads were washed with PBS and the eluted proteins were detected by immunoblotting with anti-sAPPα antibody. Band intensities were quantified using Image Processing and Analysis in Java (ImageJ) software (National Institutes of Health, Bethesda, Md.)
# [10] = system: SOAT1; assay: Immunoblotting of membrane-resident protein SOAT1 in HEK293 cells; format: cell-based, human
# Protocol: as §4
# [11] = system: BACE1; assay: Immunoblotting of BACE1 (β-secretase) in HEK293 cells; format: cell-based, human
# Protocol: as §4
# [12] = system: ADAM10; assay: Immunoblotting of membrane-resident protein ADAM10 in HEK293 cells; format: cell-based, human
# Protocol: as §4
# [13] = system: sAPPα; assay: Immunoprecipitation/immunoblot of sAPPα in conditioned medium of HEK293 cells; format: cell-based, human; details: 20 μM; cholesterol loaded HEK293 cells
# Protocol: as §4
# [14] = cholesterol loaded HEK293 cells (FIG. 18A)
# [15] = wild-type HEK293 cells, not loaded with cholesterol
smiles,measurement,setting,value
"CCC=CCC=CCC=CCC=CCC=CCC=CCCC(=O)OC(CO)COC(=O)CCCCCCCCCCCCCCC (stereo not shown) [16:0*:DHA glycerol, reference compound]",membrane cholesterol (membrane free cholesterol levels),[1]; 48 hr incubation,inactive
same,membrane free cholesterol,[2],inactive
"CC/C=C\C/C=C\C/C=C\C/C=C\C/C=C\C/C=C\CCC(=O)OC(COCCCCCCCCCCCCCCCC)COC(=O)CCCC[C@@H]1CCSS1 (stereo partly drawn) [PPI-1011, (4Z,7Z,10Z,13Z,16Z,19Z)-1-(5-((R)-1,2-dithiolan-3-yl)pentanoyloxy)-3-(hexadecyloxy)propan-2-yl docosa-4,7,10,13,16,19-hexaenoate]",new steady-state level of plasma plasmalogens and phosphatidylethanolamines versus dose,"[3]; 6 hours after oral doses of 10, 75, 200 mg/kg",dose-dependent manner from 10 to 200 mg/kg
same,steady-state levels of circulating DHA,[3]; dose of 1000 mg/kg versus 500 mg/kg,did not further increase
same,steady-state levels of plasmalogens and phosphatidylethanolamines above that obtained with 200 mg/kg,"[3]; further increases in dose (500, 1000 mg/kg), 6 hours",did not increase
same,"deacylation at sn-2, releasing docosahexaenoic acid (DHA)",[3]; oral dose of 200 mg/kg,observed
same,reference phosphatidylethanolamine 16:0/18:0 in plasma,[3]; oral dose of 200 mg/kg,No change
same,incorporation into circulating plasmalogens,"[3]; oral dose of 200 mg/kg, rabbit plasma",incorporated into circulating plasmalogens
same,oral bioavailability,[3]; rabbit,orally bioavailable
same,tissue plasmalogens and DHA in rabbit kidney,[4],augmentation
same,tissue plasmalogens and DHA in rabbit liver,[5],augmentation
"CC/C=C\C/C=C\C/C=C\C/C=C\C/C=C\C/C=C\CCC(=O)OC(COCCCCCCCCCCCCCCCC)COC(=O)C(CS)NC(C)=O (stereo not shown) [PPI-1014, (4Z,7Z,10Z,13Z,16Z,19Z)-1-(2-acetamido-3-mercaptopropanoyloxy)-3-(hexadecyloxy)propan-2-yl docosa-4,7,10,13,16,19-hexaenoate]",incorporation in N-Rel ethanolamine plasmalogens (PlsEtn) and phosphatidylethanolamines (PtdEtn),"[6]; 72 hours, 5, 10 and 20 μM",structure-specific and concentration-dependent incorporation
CCC=CCC=CCC=CCC=CCC=CCC=CCCC(=O)OC(CO)COCCCCCCCCCCCCCCCCCC (stereo not shown) [18:0/DHA glycerol],membrane cholesterol (membrane free cholesterol levels),[1]; 48 hr incubation,decrease
"CC/C=C\C/C=C\C/C=C\C/C=C\C/C=C\C/C=C\CCC(=O)OC(COCCCCCCCCCCCCCCCC)COC(=O)CC(C[N+](C)(C)C)OC(C)=O (stereo not shown) [PPI-1009, 2-acetoxy-4-(2-((4Z,7Z,10Z,13Z,16Z,19Z)-docosa-4,7,10,13,16,19-hexaenoyloxy)-3-(hexadecyloxy)propoxy)-N,N,N-trimethyl-4-oxobutan-1-aminium]",DHA plasmalogens in CHO cells,[7],concentration-dependent (72 hr) increase
same,conversion to PlsEtn species,[7],effectively converted to PlsEtn species
same,"membrane cholesterol levels, concentration response",[1]; 48 hr incubation,concentration-dependently decrease
same,membrane cholesterol esters (esterified cholesterol),[2],augmentation
same,membrane free cholesterol,[2],most robust decreases
same,membrane cholesterol levels,[2],concentration-dependently decrease
same,time course of incorporation into plasmalogens,"[6]; 10 μM, 0, 6, 12, 24, 48 and 72 hr",incorporation into plasmalogens
same,cellular levels of chimyl alcohol or the associated alkenyl-acyl-glycerol,"[6]; 10 μM, 0-72 hr, chimyl alcohol by GC-MS",lack of effect
same,conversion to PlsEtn species,[6],effectively converted to PlsEtn species
same,basal and cholesterol (25.8 μM)-stimulated Aβ42 secretion,[8]; 10 μM,acted in a similar manner
same,levels of AB-40,[8],decreased
same,levels of AB-42,[8],decreased
"CCCCCCCCCCCCCCCCOCC(O)CO (stereo not shown) [chimyl alcohol, reference compound]",DHA plasmalogens in CHO cells,[7],no effect
same,DHA-plasmalogens in N-Rel cells,[6]; expressed relative to N-Rel controls,increased
CC/C=C\C/C=C\C/C=C\C/C=C\C/C=C\C/C=C\CCC(=O)OC(CO)COCCCCCCCCCCCCCCCC (stereo not shown) [PPI-1005],DHA plasmalogens in CHO cells,[7],concentration-dependent (72 hr) increase
same,conversion to PlsEtn species,[7],effectively converted to PlsEtn species
same,APP abundance,[9],No change
same,membrane cholesterol (membrane free cholesterol levels),[1]; 48 hr incubation,decrease
same,free cholesterol content of the cell membrane,"[1]; cholesterol loaded HEK293 cells, 48 hours",significantly reduced
same,membrane cholesterol esters (esterified cholesterol),[2],increases
same,membrane free cholesterol,[2],decreases
same,membrane cholesterol levels,[2],significant reduction
same,SOAT1 upregulation compared with the cholesterol loaded condition,[10]; [14],approximately 25%
same,concentration-dependent increase in abundance of SOAT1,[10]; [15],50%
same,β-secretase abundance,"[11]; 20 μM, cholesterol loaded HEK293 cells",restored to normal levels
same,BACE I abundance,[11]; [15],No change
same,"levels of total DHA plasmalogens in N-Rel cells, relative to control CHO cells",[6]; 72 hr incubation,restored in a concentration-dependent manner
same,DHA-PlsEtn level,[6]; N-Rel cells,80 % of control values
same,conversion to PlsEtn species,[6],effectively converted to PlsEtn species
same,basal and cholesterol (25.8 μM)-stimulated Aβ42 secretion,[8]; 20 μM,decreases
same,"Aβ42 content in the conditioned medium, drop below cholesterol-loaded levels","[8]; 20 μM, cholesterol loaded HEK293 cells, 48 hour incubation",70%
same,levels of AB-40,[8],decreased
same,levels of AB-42,[8],decreased
same,increase in ADAM10,[12]; [14],63%
same,concentration-dependent increase in abundance of ADAM10,[12]; [15],35%
same,increase in sAPPα species in the conditioned medium,[13],73%
